Laboratory results: paper PMC3551756, “HIV-1 Fusion Is Blocked through Binding of GB Virus C E2D Peptides to the HIV-1 gp41 Disulfide Loop” (PLoS ONE, 2013)

Legend:
[1] = test system: HIV-1 NL4-3 / TZM-bl cells; assay: HIV-1 virion-based (BlaM-Vpr) virus-cell fusion assay; details: standard (pre-CD4 binding) and TAS (post-CD4 binding, 23°C 1 h then 37°C 2 hr); E2 peptides 20 µM, AMD-3100 10 µM, 2F5 0.5 µg/ml, b12 and B4 0.3 µg/ml; five independent experiments each in triplicate
Method: HIV-1 virions containing the BlaM-Vpr chimera were produced as previously described [33]. Briefly, 293T cells were co-transfected with pNL4-3 proviral DNA, pCMV-BlaM-Vpr, and pAdVAntage vectors. After 2 days of cultivation, the virus-containing supernatant was centrifuged for 10 min at 300×g to remove cellular debris. The HIV-1 virion-containing supernatant was overlaid onto a 20% sucrose cushion and ultracentrifuged at 35000×g at 4°C for 90 min. The resulting pellet was resuspended in medium and aliquots were frozen at −80°C until usage.
The virion-based fusion assay was performed essentially as described elsewhere [41]. Briefly, 5×10^4 TZM-bl cells were infected with sucrose-purified HIV-1 NL4-3 virions containing BlaM-Vpr (5 ng p24-Gag per approach). Under temperature-arrested state (TAS) conditions, binding of the HI virions to target cells was allowed at low temperature via spinning inoculation, for which virions were added to cells and centrifuged at 2095×g, 4°C for 30 min. […] BlaM activity was quantified using a fluorescence plate reader. The extent of virus-cell fusion was determined from the ratio of blue (460 nm) and green (510 nm) emission upon exciting the cells at 405 nm.
To find out whether early or late steps of HIV-1 entry are affected by the E2 peptides, the E2 peptide activity was determined before and after gp120/CD4 engagement using the Vpr-β-lactamase (Vpr-BlaM) enzyme-based virus-cell fusion assay under standard (pre-CD4 binding) and temperature-arrested state (TAS; post-CD4 binding) conditions, respectively.
The HIV-inhibitory activity of known HIV-1 entry inhibitors or respective E2 peptides was determined using a virus-cell fusion assay under standard (respective inhibitors were added simultaneously to HIV NL4-3BlaM-Vpr inoculum: pre-CD4 binding) or under TAS (temperature-arrested state) conditions (respective inhibitors were added at low temperature of 23°C for 1 h after spin-inoculation [4°C] and removal of unbound HIV-1 particles: post-CD4 binding). […] Percentages were calculated in relation to mock-treated cells. […]

[2] = test system: CD4; assay: CD4 surface expression, flow cytometry; type: cell-based, human; details: PBMC and TZM-bl cells; E2 peptides 25 µM, PMA 40 ng/ml; 6 hr; FACS; RTCN vs mock; average of two independent experiments each in triplicate
Method: (§1) PHA/IL-2-stimulated PBMC or TZM-bl cells were incubated with E2 peptides (25 µM), phorbol 12-myristate 13-acetate (PMA; 40 ng/ml), SDF-1α (1 µg/ml) or RANTES (50 nM) for 6 hr. CD4, CXCR4 and CCR5 surface expression was analyzed by using standard FACS staining protocols. Cells were washed with PBS and incubated for 30 min at 4°C with PE-labeled antibodies (CD4 clone SK3, CXCR4 clone 12G5, and CCR5 clone 2D7, BD Biosciences, Germany). Subsequently, washed cells were resuspended in PBS and analyzed with a FACSCalibur™ flow cytometer (BD Biosciences, Germany).
(§2) The non-HIV-1-inhibitory peptide P28 derived from the C-terminal part of E2 (residue 271 to 290), served as a negative control.
(§3) CD4, CXCR4 and CCR5 expression on PBMC (A) and TZM-bl cells (B) after preincubation with E2 peptides were determined by flow cytometry analysis. […] Percentages illustrate the ratio-to-cell-negative (RTCN) values that were calculated from the percentage of positive cells and the fluorescence intensity of peptide-incubated cells compared to mock-incubated cells. Columns show average values ±SD of two independent experiments each performed in triplicate. *: p<0.05; **: p<0.01 (mock- vs. inhibitor-incubated cells).

[3] = test system: gp120/CCR5 interaction; type: binding, HIV-1; details: 293T cells expressing CCR5; sCD4 added; peptides 0.2 mM, E2_340-Fc 0.6 µM; 1 h 37°C; normalized to Hsp90
Method: Briefly, 293T cells were transiently transfected with either pCD4 or pCCR5 expression plasmids. Verification of expression was performed 2 days after transfection via flow cytometry. After 2 days of cultivation, the cells were resuspended in binding buffer (50 mM HEPES, 5 mM MgCl2, 1 mM CaCl2, 5% BSA, 0.1 mM NaN3, pH 7.5). […] After incubation for 1 h at 37°C, cells were washed with cold PBS and lysed in Triton X-100 and Tween-20 containing buffer. Lysates were separated by a 5% SDS-PAGE and verified with monoclonal gp120 antibody F425 B4a1 (NIH AIDS Research and Reference Reagent Program) or with sheep α-HIV-1-gp120 (Aalto Bio Reagents Ltd.) in Western Blot analyses. HIV-1 gp120 (5 ng) was used as a standard.
In a related approach, the effect of E2 peptides or intact E2 protein on the interaction between gp120 and the coreceptors CCR5 and CXCR4 expressed on cells was tested by immunoblotting. To ensure efficient binding of gp120 to the coreceptors, soluble CD4 (sCD4) was added simultaneously.
Soluble HIV-1 gp120 was added to the CD4-, CCR5-, or CXCR4-expressing cells and binding was investigated by separating the cell lysates on SDS-PAGE and visualized by performing Western Blot analyses.

[4] = test system: CXCR4; assay: CXCR4 surface expression, flow cytometry; type: cell-based, human; details: PBMC and TZM-bl cells; E2 peptides 25 µM, SDF-1α 1 µg/ml; 6 hr; FACS; RTCN vs mock; average of two independent experiments each in triplicate
Method: as §1, §2, §3

[5] = test system: HIV-1; details: ref [33]; cited from earlier work
[6] = test system: CCR5; assay: CCR5 surface expression, flow cytometry; type: cell-based, human; details: PBMC and TZM-bl cells; E2 peptides 25 µM, RANTES 50 nM; 6 hr; FACS; RTCN vs mock; average of two independent experiments each in triplicate
Method: as §1, §2, §3

[7] = molecular target: E2_340-Fc / HIV-1 gp41MN interaction (Human immunodeficiency virus type 1 group M subtype B, UniProt P05877); type: binding; details: ELISA, immobilized gp41MN, E2_340-Fc constant (5 µg/ml), increasing peptide; three independent experiments each in duplicate
Method: Flat-bottom, 96-well Microtest ELISA plates (Sarstedt, Germany) were coated overnight at 4°C with recombinant HIV-1 gp120 (0.5 µg/ml), gp41 (0.22 µg/ml) proteins, or with streptavidin (4 µg/ml) in coating buffer (0.1 M NaHCO3, 0.1 M Na2CO3, pH 9.87). Nonspecific binding was blocked (blocking buffer: 1% BSA, 0.1% Tween-20 in phosphate buffer, pH 7.2) for 1 h at room temperature, followed by washing steps (wash buffer: 0.1% Tween in phosphate buffer, pH 7.2). […] All plates were then incubated with recombinant E2_340-Fc or Fc protein in serial dilutions in sample buffer (phosphate buffer, pH 7.2) for 3 hr at room temperature. To perform the competitive ELISAs, the recombinant E2_340-Fc protein was adjusted at 5 µg/ml and the monoclonal gp41 antibodies (246-D, F240, T32, D50, 2F5, 4E10, Chessie 8 [all: NIH AIDS Research and Reference Reagent Program], and 5F3 [Polymun, Austria]) at 100 µM. After washing procedure, the plates were incubated for 1 h with polyclonal rabbit anti-human IgG peroxidase antibody (Dako, Germany) 1∶6000 in sample buffer and washed. Plates were developed with TMB peroxidase substrate solution (KPL, USA), or with OPD/H2O2 solution in the dark. Absorbances (ODs) were read at 450 or 492 nm, respectively, using a multi-channel photometer (ELISA-Reader AxSYM, Abbott Laboratory, USA).
Competitive binding of E2 and gp120 peptides (N35, N35s) with recombinant E2_340-Fc protein to immobilized recombinant gp41MN. Simultaneously to E2_340-Fc incubation peptides of E2 or gp120 were added with increasing amounts.

[8] = test system: HIV-1 Env (NL4-3 gp160, X4env) on 293T cells; assay: HIV-1 gp160 (X4env) binding of FITC-labeled E2 peptides, flow cytometry; details: FITC-labeled peptides 1 µM, sCD4 pretreated, 1 h 37°C, X4env- vs vector-transfected 293T cells; three independent experiments each in duplicate
Method: 293T cells were transiently transfected with an HIV-1 Env expression vector, coding for the CXCR4-tropic NL4-3 gp160 precursor (X4env) for surface expression of gp120-gp41 Env trimers or empty plasmid as control. After 2 days of cultivation, cells were incubated with 1 µg sCD4 and 1 µM FITC-conjugated E2 peptides for 1 h at 37°C respectively. Subsequently, cells were washed, resuspended in PBS, and analyzed by flow cytometry using a BD™ LSR II flow cytometer (Becton Dickinson Biosciences, Germany). Flow cytometer data were collected with BD FACSDiva™ and analyzed with FCS Express V3. In parallel, gp160 expression was determined by staining with HIV-1 gp120 mAbs (2G12 and 17b) and an anti-human IgG-FITC pAb (Dako, Germany).
Previously, we have shown that the target of the HIV-1-inhibitory E2 peptides is most likely located on the HIV-1 particle, rather than on the cell. The surface of the HIV-1 particle consists of a lipid bilayer with incorporated host cell proteins and a limited number of functional envelope (Env) trimers (on average 14±7). Therefore, we tested whether the HIV-1-inhibitory E2 peptides interact with trimeric HIV-1 Env proteins expressed on the surface of transfected cells. For this purpose, 293T cells were transiently transfected with an HIV-1 Env expression vector, coding for the gp160 precursor of the CXCR4-tropic NL4-3 envelope (X4env). Binding of FITC-labeled E2 peptides was monitored by flow cytometry.
Figure 4 Recombinant E2_340-Fc protein and E2-derived peptides bind HIV-1 gp41. (A) 293T cells expressing NL4-3 envelope (X4env) or empty plasmid as control were incubated with sCD4 and FITC-conjugated E2 peptides, respectively. Peptide binding was analyzed by flow cytometry. Percentages illustrate the increase of cell binding to X4env-transfected cells. The increase is normalized to the background binding of E2 peptides to mock-transfected cells by calculating the RTCN value. […] (C) E2 peptides with increasing amounts were added to recombinant E2_340-Fc protein (at constant concentration) and then transferred to immobilized recombinant gp41MN.

[9] = molecular target: recombinant HIV-1 gp41MN (truncated gp41 ectodomain) (HIV-1 (strain MN)); assay: ELISA; competitive: gp41MN immobilised; E2_(340)-Fc at constant 5 µg/ml with increasing amounts of peptide; bound E2_(340)-Fc detected with anti-human IgG peroxidase antibody

c1cc(CN2CCCNCCNCCCNCC2)ccc1CN1CCCNCCNCCCNCC1 [AMD-3100, reference compound]
inhibition of virus-cell fusion, standard versus TAS conditions [1]: act after CD4 engagement

CCCCCCCCCCCCCC(=O)O[C@@H]1[C@@H](C)[C@@]2(O)[C@@H](C=C(CO)C[C@]3(O)C(=O)C(C)=C[C@@H]23)[C@@H]2C(C)(C)[C@]12OC(C)=O [PMA, phorbol 12-myristate 13-acetate, reference compound]
CD4 surface presentation [2]: down-regulation of CD4

Cc1ccc(-c2ccc3c(c2)C=C(C(=O)Nc2ccc(C[N+](C)(C)C4CCOCC4)cc2)CCC3)cc1.[Cl-] [TAK-779]
interference with gp120 binding to CCR5 [3]: clear reduction in the gp120/CCR5

Ac-TEVSEALGGAGLTGGFYEPL [P28]
CXCR4 surface presentation [4]: no relevant effect on HIV-1 receptor presentation
HIV-inhibitory activity (earlier work) [5]: non-HIV-1-inhibitory
CD4 surface presentation [2]: no relevant effect on HIV-1 receptor presentation
CCR5 surface presentation [6]: no relevant effect on HIV-1 receptor presentation
competition with E2_340-Fc for gp41 binding [7]: no effect
binding to HIV-1 Env-expressing cells [8]: the increase of binding was not observed

GBV-C E2 peptide P6-2 (amino acids 45 to 64)
IC50 [9]: 7 µM

Maraviroc
interference with gp120 binding to CCR5 [3]: clear reduction in the gp120/CCR5

N35, HIV-1 gp120 N-terminus peptide (gp120 residue 31 to 65) (from UniProt P04578 31-65)
IC50 [9]: 0.7 µM

N35s, C54S variant of the HIV-1 gp120 N-terminus peptide N35 (from UniProt P04578 31-65)
IC50 [9]: 4.6 µM

SDF-1α [reference compound]
CXCR4 surface presentation [4]: down-regulation of the respective coreceptors

B1: RANTES: CCR5-ligand (protein, UniProt P13501 24-91, looked up)
C-C motif chemokine 5: SPYSSDTTPCCFAYIARPLPRAHIKEYFYTSGKCSNPAVVFVTRKNRQVCANPEKKWVREYINSLEMS
CCR5 surface presentation [6]: down-regulation of the respective coreceptors
